We go through one substance from patent publication US11767504B2, “Albumin compositions and methods of producing and using same” (Albcura Corporation, priority 2020, dated 2023).

This assay concerns Insulin. The assay can be described thus: Assay of insulin aggregation stabilization by various albumin (absorbance at 360 nm). The assay is classed as biochemical. The following applies: 1−(A360 with albumin)/(A360 of (−) group), at time point where control A360 near 0.35; albumin samples 2 mg/mL mixed 1:1 with 0.7 mg/mL insulin working solution, 37° C.

Procedure: Various albumin samples were diluted to 2 mg/mL in purified water. An assay working solution was prepared containing 60 mM of HEPES (pH=7.4), 300 mM of NaCl, 30 mM of 2-mercaptoethanol, and 0.7 mg/mL of Insulin. In a 96-well plate, 100 μL of the assay working solution was mixed with 100 μL of each albumin sample. The plate was incubated at 37° C. inside a plate reader, and the absorbance at 360 nm was measured every 30 seconds for 60 minutes.
The absorbance data at 360 nm (A360) of each group was picked at the time point where the A360 of the control group (without albumin, labeled as (−)) was near 0.35. […] Stabilizing Efficiency %=1−(A360 of experimental group with albumin)/(A360 of (−) group)

“fatty acid free BSA: Fatty acid-free BSA from Sigma Aldrich (A8806)”: the “Stabilizing Efficiency” value worked out at 53%.
